Reference: patent publication US20100279997A1, “ANALGESIC THAT BINDS FILAMIN A” (priority 2009, published 2010)
Read-outs that look alike come from different tables or passages of the source.

Assays:
[1] = target: Bn-VAKGL pentapeptide of filamin A (FLNA) (Homo sapiens, UniProt P21333); test: FITC-NLX-based FLNA screening assay (FLNA peptide binding assay)
Method: The final assay volume is 100 μl.
Compounds are tested in triplicate or quadruplicate.

μ opiate receptor (MOR) = target: T1, μ opiate receptor (MOR) (Rattus norvegicus, UniProt P33535); test: MOR agonist activity, [35S]GTPγS binding assay using striatal membranes; format: biochemical; conditions: for [35S]GTPγS binding to Gαo, FLNA-binding compound as agonist 0.1 μM: 0.1 μM compound; for [35S]GTPγS binding to Gαo, FLNA-binding compound as agonist 0.1 μM / [35S]GTPγS binding to Gαo, FLNA-binding compound as agonist 1 μM: striatal membranes; for [35S]GTPγS binding to Gαo, FLNA-binding compound as agonist 1 μM + BFNA: 1 μM compound + 1 μM β-funaltrexamine; for [35S]GTPγS binding to Gαo, FLNA-binding compound as agonist 1 μM: 1 μM compound; for % DAMGO + BFNA: relative to DAMGO + BFNA; for % DAMGO (0.1 μM) / % DAMGO (1 μM): relative to DAMGO
T1 construct: from tissue; host or cells: striatal tissue (membrane preparation)
Method: To assess the μ opiate receptor (MOR) agonist activity of positive compounds from the FLNA screening, compounds were tested in a [^35S]GTPγS binding assay using striatal membranes.
Striatal tissue was homogenized in 10 volumes of ice cold 25 mM HEPES buffer, pH 7.4, which contained 1 mM EGTA, 100 mM sucrose, 50 μg/ml leupeptin, 0.04 mM PMSF, 2 μg/ml soybean trypsin inhibitor and 0.2% 2-mercaptoethanol. The homogenates were centrifuged at 800×g for 5 minutes and the supernatants were centrifuged at 49,000×g for 20 minutes. The resulting pellets were suspended in 10 volume of reaction buffer, which contained 25 mM HEPES, pH 7.5, 100 mM NaCl, 50 μg/ml leupeptin, 2 μg/ml soybean trypsin inhibitor, 0.04 mM PMSF and 0.02% […].
The resultant striatal membrane preparation (200 μg) was admixed and maintained (incubated) at 30° C. for 5 minutes in reaction buffer as above that additionally contained 1 mM MgCl2 and 0.5 nM [^35S]GTPγS (0.1 μCi/assay, PerkinElmer Life and Analytical Sciences) in a total volume of 250 μl and continued for 5 minutes in the absence or presence of 0.1-10 μM of an assayed compound of interest. The reaction was terminated by dilution with 750 μl of ice-cold reaction buffer that contained 20 mM MgCl2 and 1 mM EGTA and immediate centrifugation at 16,000×g for 5 minutes.
The resulting pellet was solubilized by sonicating for 10 seconds in 0.5 ml of immunoprecipitation buffer containing 0.5% digitonin, 0.2% sodium cholate and 0.5% NP-40. Normal rabbit serum (1 μl) was added to 1 ml of lysate and incubated at 25° C. for 30 minutes. Nonspecific immune complexes were removed by incubation with 25 μl of protein A/G-conjugated agarose beads at 25° C. for 30 minutes followed by centrifugation at 5,000×g at 4° C. for 5 minutes. The supernatant was divided and separately incubated at 25° C. for 30 minutes with antibodies raised against Gao proteins (1:1,000 dilutions).
The immunocomplexes so formed were collected by incubation at 25° C. for 30 minutes with 40 μl of agarose-conjugated protein A/G beads and centrifugation at 5,000×g at 4° C. for 5 minutes. The pellet was washed and suspended in buffer containing 50 mM Tris-HCl, pH 8.0, and 1% NP-40. The radioactivity in the suspension was determined by liquid scintillation spectrometry. […] DAMGO (H-Tyr-D-Ala-Gly-N-MePhe-Gly-OH; 1 or 10 μM) was used as a positive control.

[2] = Mouse hot-water tail-flick test; format: in vivo
Method: The mouse “tail flick” test was used to assay the relative antinociceptive activity of compositions containing a compound to be assayed. This assay was substantially that disclosed by Xie et al., 2005 J. Neurosci 25:409-416.
The mouse hot-water tail-flick test was performed by placing the distal third of the tail in a water bath maintained at 52° C. The latency until tail withdrawal from the bath was determined and compared among the treatments. A 10 second cutoff was used to avoid tissue damage. Data are converted to percentage of antinociception by the following formula: (response latency−baseline latency)/(cutoff−baseline latency)×100 to generate dose-response curves. […] Relative potency was determined as a ratio of the A50 values.
To assess tolerance to the antinociceptive effect, the compound was administered twice daily for 7 days at an A90 dose (dose that results in a 90% antinociceptive effect in the 52° C. warm-water tail-flick test), and the tail-flick test was performed daily after the a.m. dose.

[3] = read-out: Percent inhibition of FITC-NLX binding, 0.01 μM
[4] = read-out: Percent inhibition of FITC-NLX binding, 0.1 μM
[5] = read-out: Percent inhibition of FITC-NLX binding, 1 μM
[6] = read-out: Percent inhibition of FITC-NLX binding, 0.1 μM, 0.1 μM compound, 10 nM FITC-NLX
[7] = read-out: Percent inhibition of FITC-NLX binding, 0.01 μM, 0.01 μM compound, 10 nM FITC-NLX
[8] = read-out: Percent inhibition of FITC-NLX binding, 1 μM, 1 μM compound, 10 nM FITC-NLX

T1 sequence (P33535 whole entry): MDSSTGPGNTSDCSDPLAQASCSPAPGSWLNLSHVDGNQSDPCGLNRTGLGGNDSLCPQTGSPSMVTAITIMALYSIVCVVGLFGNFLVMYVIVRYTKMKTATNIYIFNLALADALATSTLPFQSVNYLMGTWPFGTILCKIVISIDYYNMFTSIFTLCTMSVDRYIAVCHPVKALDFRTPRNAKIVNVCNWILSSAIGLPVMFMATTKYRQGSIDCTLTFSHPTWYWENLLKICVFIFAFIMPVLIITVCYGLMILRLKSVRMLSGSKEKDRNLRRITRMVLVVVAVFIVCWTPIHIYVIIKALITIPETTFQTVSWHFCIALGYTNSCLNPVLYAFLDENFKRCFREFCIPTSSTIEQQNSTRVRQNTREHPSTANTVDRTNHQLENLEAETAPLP

Structure (SMILES)	inhibition at 0.01 µM [1, 3] [%]	inhibition at 0.1 µM [1, 4] [%]	inhibition at 1 µM [1, 5] [%]	[35S]GTPγS binding to Gαo, FLNA-binding compound as agonist 0.1 μM (μ opiate receptor (MOR)) [%]	[35S]GTPγS binding to Gαo, FLNA-binding compound as agonist 1 μM + BFNA (μ opiate receptor (MOR)) [%]	[35S]GTPγS binding to Gαo, FLNA-binding compound as agonist 1 μM (μ opiate receptor (MOR)) [%]	% DAMGO + BFNA (μ opiate receptor (MOR)) [%]	% DAMGO (0.1 μM) (μ opiate receptor (MOR)) [%]	% DAMGO (1 μM) (μ opiate receptor (MOR)) [%]	inhibition at 0.1 µM [1, 6] [%]	mean maximum antinociception ([2]; 32 mg/kg)	time of maximum antinociception ([2]; 32 mg/kg) [min]	mean maximum antinociception ([2]; oral, 56 mg/kg)	inhibition at 0.01 µM [1, 7] [%]	inhibition at 1 µM [1, 8] [%]	time of maximum antinociception (peak activity) ([2]; oral, 56 mg/kg)	time of maximum antinociception (peak activity) ([2]; oral, 56 mg/kg, listed as Morphine)	A50 (dose that resulted in a 50% antinociceptive effect), with 95% CI ([2]; orally administered, 52° C. tail flick)
COc1ccc(OCC(O)CN2CCN(Cc3ccccc3)CC2)cc1 (centres unmarked) [Compound A0073]	47.3	54.8	59.7	201.7	185.8	325.7	344.7	100.5	103.7									
CC1CN(CC(O)COc2ccccc2C(C)C)CC(C)O1 (centres unmarked) [Compound A0029]				173.8	22.3	206.5				44.4								
CC1CN(CC(O)COc2ccc(Br)c(F)c2)CC(C)O1 (centres unmarked) [Compound A0041]				212.7	50.6	283.6					about 12%	10 to 15						
CC1CCC(C(C)C)C(OCC(O)CN2CCc3ccccc32)C1 (centres unmarked) [Compound A0065]	38.7	50	50.8	197.6	44.9	266.8	112.5	126.6	115.7				about 25%					
CC1CCC(C(C)C)C(OCC(O)CN2CCOc3ccccc32)C1 (centres unmarked) [Compound A0066]				151.9	59.2	195.6	171.6	88.3	89.0	45.4				36.7	53.7			
CN1CC[C@]23c4c5ccc(O)c4O[C@H]2[C@@H](O)C=C[C@H]3[C@H]1C5 [morphine, reference compound]													about 43%			about 20 minutes	twenty	61.8 (52.4-72.9) mg/kg
COc1ccc(OCC(O)CN2CCC(=O)CC2)cc1 (centres unmarked) [Compound A0071]				225.7	239.4	310.9	1088.2	128.2	122.9	46.8				44.7	53.9			
CC1CCCC(OCC(O)CN2CC(C)OC(C)C2)C1 (centres unmarked) [Compound A0021]				133.3	12.1	275.3							about 25%					
CC1CCC(C(C)C)C(OCC(O)CN2CCN(Cc3ccccc3)CC2)C1 (centres unmarked) [Compound A0072]	45.5	52.2	59.4	254.3	171.8	305.1	318.7	126.8	97.2									
OC(CN1CCc2ccccc2C1)OCc1ccc(Br)c(F)c1 (centres unmarked) [Compound A0057]	29.1	37	43.4	124.2	44.8	192.1	112.3	79.6	83.3									
CC1CN(CC(O)COc2cccc(F)c2)CC(C)O1 (centres unmarked) [Compound A0049]				232.3	107.1	370.3							about 45%					
COc1ccc(OCC(O)CN2CCc3cc4c(c(OC)c3C2)OCO4)cc1 (centres unmarked) [Compound A0070]				128.6	80.3	195.3	232.8	74.7	88.9	39.1				32.9	41.7			
CC1CCC(C(C)C)C(OCC(O)CN2CCN(CCN3CCOCC3)CC2)C1 (centres unmarked) [Compound A0011]				236.3	47.0	287.5							about 38%					
COc1ccc(OCC(O)CN2CCCc3ccccc32)cc1 (centres unmarked) [Compound A0067]				170.8	33.9	254.4	98.3	99.2	115.8	39.1				32.7	44.3			
